Publication PMC10033538, “Analysis of 2′-hydroxyflavanone (2HF) in mouse whole blood by HPLC–MS/MS for the determination of pharmacokinetic parameters” (Frontiers in Chemistry, 2023)
Where two headings read alike, the source gives them in different places.

Legend:
[1] = Oral pharmacokinetic study of 2HF in BALB/c mouse blood (HPLC-MS/MS, non-compartmental analysis); assay type: in vivo; conditions: BALB/c mice, single oral dose 10 mg/kg, whole blood
Protocol: BALB/c mice, with six mice per group, received a single dose of 10 mg/kg 2HF that was solubilized in DMSO (2%) and suspended in Ora-plus® (Perrigo, Minneapolis, MN, United States). ORA-Plus is an aqueous-based vehicle consisting of suspending agents that have a high degree of colloidal activity, facilitating the process involved in the extemporaneous compounding of oral suspensions. Ora-Plus contains purified water, microcrystalline cellulose, sodium carboxymethylcellulose, xanthan gum, and carrageenan as suspending agents; calcium sulfate, sodium phosphate, and citric acid as buffering agents; simethicone as an antifoaming agent; and potassium sorbate and methylparaben as preservatives, as described in the datasheet. The doses were administered orally using a gavage needle.
Mouse blood (300 µL) was collected via the orbital plexus, one mouse per time, with six replicates (6 mice per time interval). For anesthesia, an ophthalmic solution of tetracaine hydrochloride (1%) and phenylephrine hydrochloride (0,1%) was used, and one drop was administered in the chosen orbital 5 min before collection. The collection was performed with […] Pasteur pipettes that were previously autoclaved, and blood was transferred to 1.5 mL microtubes that were also heparinized. The time intervals determined were 2.5, 5, 7.5, 10, 15, 30, 45, 60, 90, 120, and 240 min after administration of the compound. After collecting all samples, 2HF was extracted as described above.
The pharmacokinetic parameters were obtained by non-compartmental analysis (NCA) using the Phoenix WinNonlin® 8.1 program (CERTARA). The maximum blood peak concentration (Cmax) and time to peak concentration (Tmax) were obtained directly from the blood concentration-time profiles. The area under the concentration-time curve from time zero to time t (AUC0–t) was obtained using the trapezoidal method. The area under the total blood concentration-time curve from time zero to infinity (AUC0–∞) was calculated using Eq. 4 as follows: AUC0–∞=AUC0–t+Clast÷kel (4) where Clast is the concentration observed at the last time, and kel is the apparent elimination rate constant obtained from the terminal slope of the blood concentration-time curve after logarithmic transformation of the blood concentrations and application of linear regression.
The blood elimination half-life (t1/2) was calculated using Eq. 5 as follows: t1/2=ln2÷kel (5)
Apparent oral clearance (CL/F) and apparent volume of distribution (Vd/F) parameters were obtained from the blood concentrations and expressed normalized to bioavailability (F) because only oral data are available.

[2] = Stability of 2HF in mouse blood (short-term, postpreparative, freeze-thaw, long-term); assay type: in vitro ADME, BALB/c mouse; conditions: for Deviation, short term stability / Mean concentration, short term stability: +22.0 °C; for Deviation, short term stability / Mean concentration, short term stability / Deviation, freeze-thaw stability / Mean concentration, freeze-thaw stability / Deviation, long-term stability / Mean concentration, long-term stability / Deviation, postpreparative stability / Mean concentration, postpreparative stability: n = 8; for Deviation, freeze-thaw stability / Mean concentration, freeze-thaw stability / Deviation, long-term stability / Mean concentration, long-term stability: −70.0 °C; for Deviation, freeze-thaw stability / Mean concentration, freeze-thaw stability: 6 cycles; for Deviation, postpreparative stability / Mean concentration, postpreparative stability: processed mouse blood sample, +10.0 °C
Protocol: Stability studies were initiated and completed before analyzing the studied samples. The stability in the biological matrix was evaluated through freezing and thawing cycles, short-term and long-term stability, and postpreparative. All tests were performed with eight replicates for each sample concentration level. To carry out the stability tests, an initial quantification test (TQI) was performed in accordance with local regulatory norms that aim to guarantee good practices through quality standards. In this test, samples of LQC […] and HQC […] were analyzed, in which the concentration was determined by utilizing a freshly prepared calibration curve. The number of replicates that were analyzed in each control was the same as that used in the stability tests. Freeze–thaw cycle temperatures are presented in Supplementary Table S4.
The stability of 2HF in BALB/c mouse blood was evaluated using short-term tests at 22 °C, postprocessing stability at +10 °C, stability in freeze–thaw cycles (n = 06 cycles) and long-term stability with the samples stored at −70 °C. In these assays, the quality controls of low and high concentrations, LQC: 3.00 ng/mL and HQC: 200.00 ng/mL, were used.

Leishmania amazonensis [3] = tested on: Leishmania amazonensis; set-up: method as in Gervazoni et al., 2018; conditions: in vitro; ref Gervazoni et al., 2018; cited from earlier work
Leishmania amazonensis [4] = conditions: ref Gervazoni et al., cited from earlier work; for In vivo effects in cutaneous leishmaniasis model: single oral dose/day, 2020
tumor growth = tested on: tumor growth; set-up: method as in earlier work; conditions: single oral doses of 100 mg/kg/day or 25, 50 and 100 mg/kg every other day, ref Yue et al., 2020, Nagaprashantha et al., 2011, Singhal et al., 2018a, 2018b; cited from earlier work
[5] = rat plasma, cited from earlier work
[6] = set-up: method as in Teng et al., 2012; conditions: ref Teng et al., 2012; cited from earlier work
[7] = ref Gervazoni et al., 2020; cited from earlier work
[8] = orally administered to rats; ref Yang et al., 2019a; cited from earlier work
[9] = set-up: method as in Yang et al., 2019b; conditions: rats, 10 mg/kg oral dose; ref Yang et al., 2019b; cited from earlier work
[10] = mouse blood, HQC nominal 200.00 ng/mL
[11] = mouse blood, LQC nominal 3.00 ng/mL
[12] = sensitive and cutaneous murine model, 2018
[13] = oral single dose 100 mg/kg, ref Zhao et al., 2020

O=C1CC(c2ccccc2O)Oc2ccccc21 (centres unmarked) [2HF, 2′-Hydroxyflavanone]
AUC0-inf [1]: 5,524.54 min x ng/mL | AUC % extrap [1]: 7.30% | Cl/F, total blood clearance [1]: 18.10 mL/min | Tmax, time to reach Cmax [1]: 5 min | AUC0-t ([1]; trapezoidal method): 5,120.98 min x ng/mL | k el ([1]; mouse, NCA, read-out: Kel, elimination rate constant (converted)): 0.000118 s⁻¹ | half-life ([1]; mouse, NCA, read-out: T1/2, elimination half-time): 1.63 h | Cmax ([1]; mouse, read-out: Cmax, maximum concentration): 186 ng/mL | Vd/F ([1]; mouse, read-out: Vd/F, volume of distribution): 2.55 L | Deviations in stability tests ([2]; biological matrix, freezing and thawing, short duration, postprocessing and long duration): less than 15% | Deviation, short term stability [2, 10]: 7.53% | Mean concentration, short term stability [2, 10]: 215.06 ng/mL | Deviation, short term stability [2, 11]: 4.59% | Mean concentration, short term stability [2, 11]: 3.14 ng/mL | Degradation in the biological matrix ([2]; mouse blood, all stability tests performed): no significant degradation | Deviation, freeze-thaw stability [2, 10]: 4.68% | Mean concentration, freeze-thaw stability [2, 10]: 209.37 ng/mL | Deviation, freeze-thaw stability [2, 11]: 1.61% | Mean concentration, freeze-thaw stability [2, 11]: 3.05 ng/mL | Deviation, long-term stability [2, 10]: 5.42% | Mean concentration, long-term stability [2, 10]: 210.83 ng/mL | Deviation, long-term stability [2, 11]: −1.33% | Mean concentration, long-term stability [2, 11]: 2.96 ng/mL | Deviation, postpreparative stability ([2]; HQC nominal 200.00 ng/mL): 11.08% | Mean concentration, postpreparative stability ([2]; HQC nominal 200.00 ng/mL): 222.16 ng/mL | Deviation, postpreparative stability ([2]; LQC nominal 3.00 ng/mL): 10.11% | Mean concentration, postpreparative stability ([2]; LQC nominal 3.00 ng/mL): 3.30 ng/mL | Inhibition of promastigote and amastigote forms (Leishmania amazonensis [3]): inhibit both the promastigote and amastigote forms | In vivo activity in experimental model of cutaneous leishmaniasis (Leishmania amazonensis [4]; daily doses of 50 mg/kg for 35 days, 2018): significant effect | Lesion size (Leishmania amazonensis [4]; [12]): decrease the lesion size | Parasitic load (Leishmania amazonensis [4]; [12]): almost cease the parasitic load | Tumor growth (tumor growth): inhibited different types of tumor growth

COc1cc(O)cc(O)c1C(=O)/C=C/c1ccccc1 [Cardamonin]
Tmax ([5]; oral single dose 5 mg/kg, ref Jaiswal et al., 2017): 0.50 h

O=C(CCc1ccc(O)cc1)c1c(O)cc(O)cc1O [Phloretin]
T1/2 [5, 13]: 2.83 h | Tmax [5, 13]: 1.25 h

O=c1cc(-c2ccc(O)cc2)oc2cc(O)cc(O)c12 [apigenin]
Cmax [6]: 42 ng/mL | T1/2 [6]: 2.11 h | Tmax [6]: 0.50 h | In vivo effects in cutaneous leishmaniasis model (Leishmania amazonensis [4]): promising in vivo effects | T1/2 [7]: less than 192 min

O=C1c2c(O)cc(O)cc2O[C@H](c2cc(O)c(O)c(O)c2)[C@H]1O [dihydromyricetin]
T1/2 [8]: 3.04 h | Tmax [8]: 0.57 h

O=C1c2c(O)cc(O)cc2O[C@H](c2ccc(O)c(O)c2)[C@H]1O [dihydroquercetin]
T1/2 [8]: 2.32 h | Tmax [8]: 0.28 h

COc1cc(O)c(C(=O)/C=C/c2ccccc2)c(OC)c1 [flavokavain B]
Cmax [9]: 265.2 ng/mL | T1/2 [9]: 2.76 h | Time of Cmax [9]: 1 h

O=c1c(O)c(-c2cc(O)c(O)c(O)c2)oc2cc(O)cc(O)c12 [myricetin]
T1/2 [8]: 2.46 h | Tmax [8]: 0.22 h

O=c1c(O)c(-c2ccc(O)c(O)c2)oc2cc(O)cc(O)c12 [quercetin]
In vivo effects in cutaneous leishmaniasis model (Leishmania amazonensis [4]): promising in vivo effects | T1/2 [8]: 3.00 h | Tmax [8]: 0.25 h | T1/2 [7]: less than 192 min
